Structures are written as SMILES.

The values below come from patent US20250235458A1, “Benzimidazole derivatives for use in the treatment or prevention of a histiocytosis or a craniopharyngioma” (UNIVERSITE CLAUDE BERNARD LYON 1, priority 2021, published 2025).

What all share (format): cell-based, murine
The test system of experiment [1] is MutuDC1940 cells. Briefly: Proliferation assay (confluence by Incucyte). The procedure:
(§1) 1.5×10^4 cells (MutuDC1940) were plated onto 96 wells plates. Next day, cells were treated at 8 μM of compound 6 or vemurafenib or with the vehicle (DMSO) in presence of 0.3 μg/ml of propidium iodide (Sigma) to detect cell death. Proliferation and cell death were quantified by Incucyte® (Essen Biosciences) according to manufacturer's instructions over 48 h.
The results obtained for the proliferation assay are presented on FIG. 2. FIG. 2 presents the confluence, i.e. the percentage of the surface of the culture dish that is covered by the cells, observed during time for a culture of MutuDC1940 cells, a murine model of histiocytosis, treated at 8 μM with compound 6 according to the invention or with vemurafenib (a MAPK/BRAF inhibitor), or with the vehicle (DMSO).
(§2) The same experiments regarding cell proliferation (assessed by confluence in %) and cell death (assessed by number of dead cells on 13 mm^2) as in Example 1 were repeated with additional ERK/MyD88 inhibitors of formula (I): compounds 2, 7 and 17.
(§3) The same experiments regarding cell proliferation (assessed by confluence in %) and cell death (assessed by number of dead cells on 13 mm^2) as in Example 1 were repeated with a lower concentration, which corresponds to the IC50 of vemurafenib (BRAF inhibitor).

The subject of experiment [2] is MutuDC1940 cells. Briefly: Cell death assay (propidium iodide, number of dead cells by Incucyte). The method, then: as §1
The results obtained for the cell death assay are presented on FIG. 3. FIG. 3 presents the number of dead cells observed during time for a culture of MutuDC1940 cells, a murine model of histiocytosis, treated at 8 μM with compound 6 according to the invention or with vemurafenib (a MAPK/BRAF inhibitor), or with the vehicle (DMSO).
as §2, §3

The test system of experiment [3] is MutuDC1940 cells. Briefly: CXCL2 quantification assay (ELISA). The note with it: 8 μM, 16 h or 24 h treatment, vs DMSO. The method, then: 0.5×10^6 cells (MutuDC1940) were plated onto 6-well plates. Next day, cells were treated with 8 μM of compound 6 or DMSO for 16 or 24 hours. Each condition was performed in triplicate. Supernatants were collected and murine CXCL2 was measured by ELISA according to the manufacturer's instructions (Invitrogen).
(ELISA stands for enzyme-linked immunosorbent assay.)

[4] abbreviates: 8 μM, over 48 h, vs vehicle (DMSO).

As to `CC(C)Nc1cc(-c2c[nH]c(C(=O)N[C@H](CO)c3cccc(Cl)c3)c2)c(Cl)cn1` [ulixertinib, reference compound], in the experiment with MutuDC1940 cells [1] (ulixertinib at 1 μM, FIG. 11), the “cell proliferation (confluence in %)” value is reported as “only inhibit proliferation”. The “cell death (number of dead cells on 13 mm^2)” value in the experiment with MutuDC1940 cells [2] (ulixertinib at 1 μM, FIG. 12) is listed as “no effect on cell death”.
As to `COc1ccc(NC(=O)c2ccc3[nH]c(-c4ccc(N(C)C)cc4)nc3c2)cn1` [compound 6], the “cell proliferation (confluence in %)” value in the experiment with MutuDC1940 cells [1] (setting [4]) was “inhibits the proliferation of the cells”. Moreover, the “cell death (number of dead cells on 13 mm^2)” value in the experiment with MutuDC1940 cells [2] (setting [4]) is listed as “induces the death of the cells”. In addition, the “production of CXCL2 (cytokine production)” value in the experiment on MutuDC1940 cells [3] is given as “induces cytokine production”.
